What was measured:
[1] = system: greenhouse red spider mite (Tetranychus urticae); test: Tetranychus urticae spray test, OP-resistant (TETRUR), bean leaf disks; assay type: in vivo; details: application rate 500 g/ha, after 6 days
Experimental: After 6 days, the effect in % is determined.

[2] = system: nematode larvae (Cooperia curticei); test: Cooperia curticei test (COOPCU); assay type: in vivo; details: application rate 100 ppm, after 5 days
Experimental: (§1) Solvent: dimethyl sulfoxide
Vessels containing the active compound preparation of the desired concentration are populated with about 40 nematode larvae (Cooperia curticei).
After 5 days, the kill in % is determined.

[3] = logP by HPLC on reversed-phase columns (C 18), EEC Directive 79/831 Annex V.A8; assay type: physicochemical
Experimental: Calibration is carried out using unbranched alkan-2-ones (having from 3 to 16 carbon atoms) with known log P values (the log P values are determined by the retention times using linear interpolation between two successive alkanones).

[4] = system: larvae of the mustard beetle (Phaedon cochleariae); test: Phaedon test (PHAECO spray treatment); details: application rate 500 g/ha, after 7 days
[5] = system: L1 larvae of the Australian sheep blowfly (Lucilia cuprina); test: Lucilia cuprina test (LUCICU); assay type: in vivo; details: application rate 100 ppm, after 2 days
Experimental: as §1
About 20 L1 larvae of the Australian sheep blowfly (Lucilia cuprina) are transferred into a test vessel containing minced horsemeat and the active compound preparation of the desired concentration.
After 2 days, the kill in % is determined.

Boophilus microplus = Boophilus microplus test (BOOPMI injection); assay type: in vivo; parameters: dose or concentration left out as unconfirmed; details: after 7 days
Experimental: as §1
The solution of active compound is injected into the abdomen (Boophilus microplus), and the animals are transferred into dishes and kept in a climatized room. The activity is assessed by laying of fertile eggs.
100% means that none of the ticks has laid any fertile eggs.

[6] = system: larvae of the mustard beetle (Phaedon cochleariae); test: Phaedon cochleariae spray test (PHAECO); details: application rate 500 g/ha, after 7 days
Lucilia cuprina larvae = test: Lucilia cuprina (48 h); assay type: in vivo; details: application rate 100 ppm, after 48 hours
Experimental: as §1
10 mg of active compound are dissolved in 0.5 ml of dimethyl sulfoxide. To prepare a suitable formulation, the active compound solution is diluted with water to the concentration desired in each case. About 20 Lucilia cuprina larvae are introduced into a test tube which contains about 1 cm^3 of horse meat and 0.5 ml of the preparation of active compound to be tested. After 48 hours, the efficacy of the active compound preparation is determined as % larvae mortality.

[7] = system: cattle ticks (Boophilus microplus); test: Boophilus microplus injection test (BOOPMI Inj); assay type: in vivo; details: application rate 20 μg/animal, injection, after 7 days

Structure (SMILES) | pest or weed control at 500 g/ha ([1]; Tetranychus urticae, foliar, 144 h, read-out: efficacy (spider mites killed)) [%] | efficacy (kill of larvae) [2] [%] | logP(HCOOH) ([3]; pH 2.7) | logP(neutral) ([3]; pH 7.8) | efficacy (spider mites killed) [1] [%] | efficacy (beetle larvae killed) [4] [%] | efficacy (kill of larvae) [5] [%] | efficacy (laying of fertile eggs) (Boophilus microplus) [%] | effect (beetle larvae killed) [6] [%] | effect (% larvae mortality) (Lucilia cuprina larvae) [%] | efficacy (laying of fertile eggs) [7] [%]
CCN/C(=N\c1cc(SCC(F)(F)F)c(Cl)cc1Cl)c1cccnc1 [Ia-220] | 90 | 100 |  |  |  |  |  |  |  |  | 
Cc1cc(F)c(/N=C(/N)C(F)(F)F)cc1[S+]([O-])CC(F)(F)F (centres unmarked) [Ib-11] |  |  | 2.77 | 2.71 | 100 | 100 | 100 | 100 | 100 | 100 | 100
